Reference: patent US8765809B2, “Ester derivative and use thereof” (Ajinomoto Co., Inc., priority 2006, dated 2014)

Experiments:
[1] = Stability of compound: recovery rate (isolation yield) after contact with silica gel (PTLC); format: physicochemical; settings: for recovery at 30 min: PTLC, silica gel stirred with ethyl acetate 30 min, read-out: isolation yield (recovery rate) after PTLC, taken as stability upon contact with silica gel; for stability upon contact with silica gel: isolation and purification by PTLC
Procedure: As mentioned above, the reaction yields of the compounds of respective Examples were determined by applying the products obtained by a condensation reaction to PTLC and stirring the silica gel containing the object compound with ethyl acetate for 30 min, followed by filtration and concentration under reduced pressure. Since the condensation reaction proceeds at a conversion rate of not less than 90% for all compounds, the recovery rate (yield) of each compound is considered to reflect stability upon contact of the compound with the silica gel.
Using vanillyl alcohol (1.70 g, 11.0 mmol) instead of homovanillyl alcohol, and n-decanoic acid (1.72 g, 10 mmol) instead of 8-methylnonanoic acid in Example 1, similar reaction was performed. The residue was purified by PTLC to find that the yield of the obtained vanillyl decanoate was 1.33 g (4.31 mmol, 43.1%), and vanillyl decanoate was decomposed (i.e., unstabilized) by the contact with silica gel.

[2] = tested on: auricle of hairless mouse; experiment: Measurement of external blood circulation enhancing action: vasodilatory effect (red spots) after application to the ear; format: in vivo, hairless mouse (HR-1, female); set-up: key to Vasodilatory effect for hairless mouse (red spots) / Vasodilatory effect on hairless mouse (red spots): O: clear red spots is confirmed; Δ: weak red spots is confirmed; x: no development of red spots; settings: for vasodilatory / blood circulation enhancing effect, summary in words: summary of Tables 2 to 4; for Vasodilatory effect on hairless mouse (red spots) / weak red spots were observed at, time after application: 5 wt % (ethanol)
From the text: The compound of each Example, capsinoid derivative and capsaicin were compared for vasodilatory effect using auricle of hairless mouse. A sample was applied to the right ear of hairless mouse (HR-1, female), and a control was applied to the left ear. […]

[3] = Solubility of sample in liquid paraffin (note to Table 2); format: physicochemical; settings: 5 wt % in liquid paraffin
[4] = 5 wt % (liquid paraffin), first column of Table 2
[5] = application of 5 wt % in liquid paraffin
[6] = 5 wt % (liquid paraffin) as printed, second column of Table 2

Row | Compound | Vasodilatory effect for hairless mouse (red spots) [2, 4] | blood circulation enhancing effect (note, words) [2, 5] | vasodilatory / blood circulation enhancing effect, summary in words [2] | Vasodilatory effect on hairless mouse (red spots) [2] | also measured
1 | COc1cc(CCOC(=O)CCCCCCC(C)C)ccc1O [compound I, homovanillyl 8-methylnonanoate] | Δ | effect was weak and | weak blood circulation enhancing effect |  | recovery at 30 min [1]: 93.2%; stability upon contact with silica gel [1]: far stabler than vanillyl decanoate; red spots disappeared in [2, 5]: disappeared in 1 hr
2 | COc1cc(CCOC(=O)CCCCCC(C)C)ccc1O [compound I-1, homovanillyl 7-methyloctanoate] | x |  | weak blood circulation enhancing effect | Δ | weak red spots were observed at, time after application [2]: Weak red spots were observed at 20 min; solubility (note, words) [3]: sparingly soluble, thus red
3 | COc1cc(CCOC(=O)CCCCC(C)C)ccc1O [compound I-2, homovanillyl 6-methylheptanoate] | x |  | weak blood circulation enhancing effect | Δ | weak red spots were observed at, time after application [2]: Weak red spots were observed at 20 min; solubility (note, words) [3]: sparingly soluble, thus red
4 | COc1cc(CCOC(=O)CCCC(C)C)ccc1O [compound I-3, homovanillyl 5-methylhexanoate] | x |  | weak blood circulation enhancing effect | Δ | weak red spots were observed at, time after application [2]: Weak red spots were observed at 20 min; solubility (note, words) [3]: sparingly soluble, thus red
5 | COc1cc(/C=C/C(=O)OCCCCCCCC(C)C)ccc1O [compound Q-1, 8-methylnonyl ferulate] | x | Application of 5 wt %: no blood |  | x | 
6 | COc1cc(/C=C/C(=O)OCCCCCCC(C)C)ccc1O [compound Q-2, 7-methyloctyl ferulate] | x | Application of 5 wt %: no blood |  | x | 
7 | COc1cc(/C=C/C(=O)OCCCCCC(C)C)ccc1O [compound Q-3, 6-methylheptyl ferulate] | x | Application of 5 wt %: no blood |  | x | 
8 | COc1cc(COC(=O)CCCCCCC(C)C)ccc1O [dihydrocapsiate, 4-hydroxy-3-methoxybenzyl 8-methylnonanoate, reference compound] | ∘ |  |  |  | Vasodilatory effect for hairless mouse (red spots) [2, 6]: Δ; weak red spots were observed even after lapse of [2, 5]: lapse of 90 min
9 | COc1cc(COC(=O)CCCCCC(C)C)ccc1O [nordihydrocapsiate, 4-hydroxy-3-methoxybenzyl 7-methyl-octanoate, reference compound] | ∘ |  |  |  | Vasodilatory effect for hairless mouse (red spots) [2, 6]: Δ; weak red spots were observed even after lapse of [2, 5]: lapse of 90 min
10 | COc1cc(CO)ccc1O [vanillyl alcohol, reference compound] | x | Application of 5 wt %: no blood |  | x | 
11 | CCCCCCCCCC(=O)OCc1ccc(O)c(OC)c1 [vanillyl decanoate, reference compound] |  |  |  |  | recovery at 30 min [1]: 43.1%; stability upon contact with silica gel [1]: decomposed
